Measurements reported in paper PMC10361207, “Cannabinoid and Opioid Receptor Affinity and Modulation of Cancer-Related Signaling Pathways of Machaeriols and Machaeridiols from Machaerium Pers” (Molecules, 2023).
Where two headings read alike, the source gives them in different places.

Legend:
FoxO = test: Luciferase reporter assay, FoxO, HeLa; type: cell-based; settings: Homo sapiens; HeLa cells; no inducer; dash: no activity detected; read-out: IC50, FoxO (None)
Description: (§1) Hela cells (or T98G cells) from ATCC were plated in white opaque 384-well plates at a density of 4300 cells/well in 30 µL of growth medium (DMEM with 10% FBS and 1% Pen/Strep). The next day, the medium was aspirated and replaced with DMEM containing 1% FBS. The cells were transfected with respective plasmids using X-tremeGENE HP DNA transfection reagent (Roche). After 24 h of transfection, the test agents were added to the transfected cells, followed 30 min later by an inducing agent: interleukin 6 (IL-6) for Stat3, TGF-β for Smad, m-wnt3a for Wnt and PMA for AP-1, NF-κB, E2F, Myc, ETS, Notch and Hedgehog. No inducer was added for FoXO and pTK. After 4 h or 6 h of induction, the cells were lysed via the addition of the One-Glo luciferase assay system (Promega; Madison, WI). The light output was detected in a GloMax®-Multi+ Detection System with Instinct® Software (Promega E 8051). This luciferase assay determines if the test agent is able to inhibit the activation of cancer-related signaling pathways. In the case of FoxO, the enhanced luciferase activity via the test agent was assessed.

[1] = test system: panel of transcription factors (cancer-related signaling pathways); test: Luciferase reporter panel, summary over pathways, HeLa; type: cell-based; settings: Homo sapiens; HeLa cells; read-out: IC50, span over signaling pathways
Description: as §1

Notch [2] = test: Luciferase reporter assay, Notch, HeLa; type: cell-based; settings: Homo sapiens; HeLa cells; inducer PMA; dash: not inhibited by more than 40% at 50 µmol/L
Description: as §1

ETS [3] = test: Luciferase reporter assay, ETS, HeLa; type: cell-based, human; settings: Homo sapiens; HeLa cells; inducer PMA; dash: not inhibited by more than 40% at 50 µmol/L
Description: as §1

Wnt [4] = test: Luciferase reporter assay, Wnt, HeLa; type: cell-based; settings: Homo sapiens; HeLa cells; inducer m-wnt3a; dash: not inhibited by more than 40% at 50 µmol/L
Description: as §1

NF-κB [5] = test: Luciferase reporter assay, NF-κB, HeLa; type: cell-based; settings: Homo sapiens; HeLa cells; inducer PMA; dash: not inhibited by more than 40% at 50 µmol/L
Description: as §1

E2F [6] = test: Luciferase reporter assay, E2F, HeLa; type: cell-based, human
Description: as §1

Stat3 [7] = test: Luciferase reporter assay, Stat3, HeLa; type: cell-based, human; settings: Homo sapiens; HeLa cells; inducer IL6; dash: not inhibited by more than 40% at 50 µmol/L
Description: as §1

Myc [8] = test: Luciferase reporter assay, Myc, HeLa; type: cell-based; settings: Homo sapiens; HeLa cells; inducer PMA; dash: not inhibited by more than 40% at 50 µmol/L
Description: as §1

Hedgehog [9] = test: Luciferase reporter assay, Hedgehog, HeLa; type: cell-based, human; settings: Homo sapiens; HeLa cells; inducer PMA; dash: not inhibited by more than 40% at 50 µmol/L
Description: as §1

AP-1 [10] = test: Luciferase reporter assay, AP-1, HeLa; type: cell-based, human
Description: as §1

Smad2/3 [11] = test: Luciferase reporter assay, Smad2/3, HeLa; type: cell-based, human; settings: Homo sapiens; HeLa cells; inducer TGF-beta; dash: not inhibited by more than 40% at 50 µmol/L
Description: as §1

Myc [12] = test system: Myc; set-up: method as in PMID 36235141; settings: T98G glioblastoma multiforme cells; inducer PMA; cited from earlier work
ETS [13] = test system: ETS; set-up: method as in PMID 36235141; settings: T98G glioblastoma multiforme cells; inducer PMA; cited from earlier work
Stat3 [14] = test system: Stat3; set-up: method as in PMID 36235141; settings: T98G glioblastoma multiforme cells; inducer IL6; cited from earlier work
Smad2/3 [15] = test system: Smad2/3; set-up: method as in PMID 36235141; settings: T98G glioblastoma multiforme cells; inducer TGF-beta; cited from earlier work
AP-1 [16] = test system: AP-1; set-up: method as in PMID 36235141; settings: T98G glioblastoma multiforme cells; inducer PMA; cited from earlier work
NF-κB [17] = test system: NF-κB; set-up: method as in PMID 36235141; settings: T98G glioblastoma multiforme cells; inducer PMA; cited from earlier work
E2F [18] = test system: E2F; set-up: method as in PMID 36235141; settings: T98G glioblastoma multiforme cells; inducer PMA; cited from earlier work
Notch [19] = test system: Notch; set-up: method as in PMID 36235141; settings: T98G glioblastoma multiforme cells; inducer PMA; cited from earlier work
Hedgehog [20] = test system: Hedgehog; set-up: method as in PMID 36235141; settings: T98G glioblastoma multiforme cells; inducer PMA; cited from earlier work
Wnt [21] = test system: Wnt; set-up: method as in PMID 36235141; settings: T98G glioblastoma multiforme cells; inducer m-wnt3a; cited from earlier work
[22] = HeLa cells, inducer PMA, dash: not inhibited by more than 40% at 50 µmol/L

Row | SMILES | IC50 (Myc [12]) [µM] | IC50 (ETS [13]) [µM] | IC50 (Stat3 [14]) [µM] | IC50 (Smad2/3 [15]) [µM] | IC50 (AP-1 [16]) [µM] | IC50 (NF-κB [17]) [µM] | IC50 (E2F [18]) [µM] | IC50 (Notch [19]) [µM] | IC50 (Hedgehog [20]) [µM] | IC50 (Wnt [21]) [µM] | other results
1 | C=C(C)[C@@H]1CCC(C)=C[C@H]1c1c(O)cc(CCCCC)cc1O [compound 9, cannabidiol, reference compound] |  |  |  |  |  |  |  |  |  |  | IC50 (FoxO): > 50 µM; IC50 [1]: 3 to 6.1 µM; IC50 (Notch [2]): 4.8 µM; IC50 (ETS [3]): 5.5 µM; IC50 (Wnt [4]): 5.7 µM; IC50 (NF-κB [5]): 3 µM; IC50, E2F (PMA) (E2F [6]; [22]): inactive; IC50 (E2F [6]; Homo sapiens, HeLa, read-out: IC50, E2F (PMA)): > 50 µM; IC50 (Stat3 [7]): 5.9 µM; IC50 (Myc [8]): 3.8 µM; IC50 (Hedgehog [9]): 6.1 µM; IC50, Ap-1 (PMA) (AP-1 [10]; [22]): inactive; IC50 (AP-1 [10]; Homo sapiens, read-out: IC50, Ap-1 (PMA)): > 50 µM; IC50 (Smad2/3 [11]): 4.1 µM
2 | CC(C)=CCC/C(C)=C/Cc1c(O)cc(O)cc1/C=C/c1ccccc1 [compound 13] | 1.9 | 4.7 | 4.3 | 2.2 | 4.4 | 4.8 | 4.4 | 2.1 | 8.3 | 9.1 | 
3 | C=C(C)[C@H]1CCC(C)=C[C@@H]1c1c(O)cc(O)cc1/C=C/c1ccccc1 [compound 12] | 5.7 | 7.3 | 4.9 | 3.5 | 10.2 | 7.7 | 4.5 | < 5 | 7 | 12.1 | 
